Test results published in patent US20230348467A1, “Heteroaryl Derivative, Preparation Method Therefor, And Use Thereof” (Zhejiang Hisun Pharmaceutical Co., Ltd., priority 2020, published 2023).

Key:
[1] = test system: NCI-H23 cells (containing KRAS G12C mutation); test: Inhibition of NCI-H23 cell proliferation (CellTiter-Glo); assay type: cell-based; conditions: Homo sapiens, 120 hours culture
Procedure: (§1) The following method was used to determine the effects of the compounds of the present invention on NCI-H23 cell proliferation. NCI-H23 cells (containing KRAS G12C mutation) were purchased from Cell Resource Center of Shanghai Institutes for Biological Sciences, Chinese Academy of Sciences, and cultured in RPMI 1640 mediums containing 10% fetal bovine serum, 100 U penicillin, 100 μg/mL streptomycin and 1 mM Sodium Pyruvate. The activities of the cells were determined by CellTiter-Glo® Luminescent Cell Viability Assay kit (Promega, article number: G7573).
(§2) The experimental method was operated according to the steps in the kit instruction, and was briefly described as follows: test compounds were first dissolved in DMSO to prepare storage solutions of 10 mM, and then diluted in mediums, prepared as test samples. The final concentrations of the test compounds were 10,000 nM to 1.52 nM. The cells in logarithmic phase were inoculated in a 96-well cell culture plate with 1,000 cells per well, after cultured overnight in 5% CO2 incubator at 37° C., the test compounds were added to the incubator to continue the culture for 120 hours. After the culture, 50 μL of CellTiter-Glo detection solution was added to each well, shaken for 5 minutes, and then stood for 10 minutes. Then, a Luminescence mode was used to read the luminescence values of each well of the samples on a microplate reader. Compared with the numerical value of a control group (0.3% DMSO), the percentage inhibition rates of the compounds at each concentration were calculated, and the IC50 values of the compounds inhibiting cell proliferation were obtained by performing nonlinear regression analysis with logarithmic values of the compound concentration—inhibition rate by GraphPad Prism 5 software, which was shown in Table 2.

[2] = test system: NCI-H358 cells (containing KRAS G12C mutation); test: Inhibition of NCI-H358 cell proliferation (CellTiter-Glo); assay type: cell-based; conditions: Homo sapiens, NCI-H358, 120 h, read-out: IC50(nM)/NCI-H358
Procedure: as §1, with “NCI-H358” for “NCI-H23”
as §2, with “of the” for “of a”, “Table 3.” for “Table 2.”

[3] = target: recombinant human full-length SHP2 (Homo sapiens (Human), UniProt Q06124); test: Allosteric inhibition of full-length SHP2 enzyme (DiFMUP fluorescence); assay type: biochemical; conditions: full-length SHP2 0.5 nM, activating peptide 0.5 uM, DiFMUP substrate
Source text: The following method was used to determine the inhibition degrees of the compounds of the present invention on the activity of recombinant human full-length SHP2 in vitro. SHP2 was allosterically activated by the binding of di-tyrosyl-phosphorylated peptide to a Src homologous 2(SH2) domain of SHP2. An activation step of the latter leads to the self-inhibitory interface release of SHP2, and then activates SHP2 protein tyrosine phosphatase (PTP), which might be used for substrate recognition and reaction catalysis.
The experimental process was briefly described as follows: Test compounds were first dissolved in DMSO to prepare storage solutions. […] Then, the compounds to be tested were added in a concentration range of 0.00004-10 uM and incubated at 25° C. for 60 minutes. Then DiFMUP (Thermo, D6567) was added in the reaction and incubated at 25° C. for 30 minutes. After incubation, readings were taken using a microplate reader (BMG) with excitation and emission wavelengths of 340 nm and 450 nm, respectively.

[4] = Pharmacokinetic test in ICR mice, intragastric (Test Example 4); assay type: in vivo; conditions: PO
Source text: ICR mice were used as test animals, and LC/MS/MS methods was used to determine the drug concentrations at different moments in plasma of mice administered by intragastric injection with the compound 5 and the compound 6 of the present invention, and to study the pharmacokinetic characteristics of the compounds of the present invention in mice. An appropriate amount of drug was weighed, added with an appropriate amount of sodium carboxymethylcellulose (CMC-Na, containing 0.5% Tween 80), vortexed, and ultrasonically prepared into 1 mg/kg suspension. The ICR mice in the intragastric group of each compound to be tested (9 mice in each group) were fasted overnight and then administered by intragastric injection (PO, […], and administration volume of 10 mL/kg), and ate 4 hours after administration. About 0.2 mL of blood was collected via jugular vein before administration and 0.083 hour, 0.25 hour, 0.5 hour, 1 hour, 2 hours, 4 hours, 8 hours and 24 hours after administration, and heparin sodium was used for anticoagulation. The collected blood samples were placed on ice, and plasma was separated by centrifugation (centrifugation condition: 1,500 g, 10 minutes). The collected plasma samples were stored at −40° C. to −20° C. before analysis. LC-MS/MS was used to determine the contents of the compounds to be tested in mouse plasma after intragastric administration.

recombinant human full-length SHP2, sequence (Q06124 whole entry): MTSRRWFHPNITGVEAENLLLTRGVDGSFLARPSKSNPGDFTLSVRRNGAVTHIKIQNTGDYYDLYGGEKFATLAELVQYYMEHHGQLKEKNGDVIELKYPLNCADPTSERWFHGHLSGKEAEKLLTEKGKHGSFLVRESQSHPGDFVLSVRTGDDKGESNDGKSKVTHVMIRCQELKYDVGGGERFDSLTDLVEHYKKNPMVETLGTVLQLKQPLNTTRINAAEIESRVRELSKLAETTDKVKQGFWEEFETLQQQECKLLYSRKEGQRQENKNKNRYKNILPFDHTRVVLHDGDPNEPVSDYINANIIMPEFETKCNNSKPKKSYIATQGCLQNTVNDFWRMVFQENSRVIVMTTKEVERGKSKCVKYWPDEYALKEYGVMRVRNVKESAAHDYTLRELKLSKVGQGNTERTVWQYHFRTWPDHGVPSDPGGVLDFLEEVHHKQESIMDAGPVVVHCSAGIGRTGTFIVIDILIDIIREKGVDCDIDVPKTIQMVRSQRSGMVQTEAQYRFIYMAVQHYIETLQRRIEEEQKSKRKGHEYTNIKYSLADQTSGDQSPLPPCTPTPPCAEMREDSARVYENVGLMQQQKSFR

Structure (SMILES)	IC50 [3]	further results
Cc1nc(N2CCC3(CC2)CO[C@@H](C)[C@H]3N)c(CO)nc1-c1cccc(Cl)c1Cl [RMC-4550, reference compound]		IC50 [1]: 240 nM; IC50 [2]: 80 nM
NC(=O)c1nc(N2CCC(N)(CO)CC2)nc2[nH]nc(-c3cccc(Cl)c3Cl)c12 [Example 13, 6-(4-Amino-4-(hydroxymethyl)piperidin-1-yl)-3-(2,3-dichlorophenyl)-1H-pyrazolo[3,4-d]pyrimidine-4-carboxamide]	10 nM	
NC1(c2cccc(Cl)c2)CCN(c2nc(C(=O)O)c3c(-c4cccc(Cl)c4Cl)n[nH]c3n2)CC1 [Example 25, 6-(4-amino-4-(3-chlorophenyl)piperidin-1-yl)-3-(2,3-dichlorophenyl)-1H-pyrazolo[3,4-d]pyrimidine-4-carboxylic acid]	5 nM	
COc1ccc(C2(N)CCN(c3nc(C(N)=O)c4c(-c5cccc(Cl)c5Cl)n[nH]c4n3)CC2)cc1 [Example 46, 6-(4-amino-4-(4-methoxyphenyl)piperidin-1-yl)-3-(2,3-dichlorophenyl)-1H-pyrazolo[3,4-d]pyrimidine-4-carboxamide]	3 nM	
CC1(N)CCN(c2nc(C(N)=O)c3c(-c4cccc(Cl)c4Cl)n[nH]c3n2)CC1 [Example 2, 6-(4-amino-4-methylpiperidin-1-yl)-3-(2,3-dichlorophenyl)-1H-pyrazolo[3,4-d]pyrimidine-4-carboxamide]	29 nM	
NC(=O)c1nc(N2[C@@H]3CC[C@H]2C[C@H](N)C3)nc2[nH]nc(-c3cccc(Cl)c3Cl)c12 [Example 8, 6-((exo)-3-amino-8-azabicyclo[3.2.1]octan-8-yl)-3-(2,3-dichlorophenyl)-1H-pyrazolo[3,4-d]pyrimidine-4-carboxamide]	5 nM	
COc1nccc(-c2n[nH]c3nc(N4CCC(N)(c5ccccc5F)CC4)nc(C(N)=O)c23)c1Cl [Example 32, 6-(4-amino-4-(2-fluorophenyl)piperidin-1-yl)-3-(3-chloro-2-methoxypyridin-4-yl)-1H-pyrazolo[3,4-d]pyrimidine-4-carboxamide]	10 nM	
NC(=O)c1nc(N2CCC(N)(c3c(F)cccc3F)CC2)nc2[nH]nc(-c3cccc(Cl)c3Cl)c12 [Example 11, 6-(4-amino-4-(2,6-difluorophenyl)piperidin-1-yl)-3-(2,3-dichlorophenyl)-1H-pyrazolo[3,4-d]pyrimidine-4-carboxamide]	17 nM	
Cc1cccc(-c2n[nH]c3nc(N4CCC(N)(c5ccccc5)CC4)nc(C(N)=O)c23)c1Cl [Example 29, 6-(4-amino-4-phenylpiperidin-1-yl)-3-(2-chloro-3-methylphenyl)-1H-pyrazolo[3,4-d]pyrimidine-4-carboxamide]	3 nM	
N[C@@H]1c2ccccc2CC12CCN(c1nc(C(=O)O)c3c(-c4cccc(Cl)c4Cl)n[nH]c3n1)CC2 [Example 9, (S)-6-(1-amino-1,3-dihydrospiro[indene-2,4′-piperidin]-1′-yl)-3-(2,3-dichlorophenyl)-1H-pyrazolo[3,4-d]pyrimidine-4-carboxylic acid]	1 nM	IC50 [1]: 13 nM
NC(=O)c1nc(N2CCC(N)(c3ccccc3)CC2)nc2[nH]nc(-c3cccc(Cl)c3Cl)c12 [Example 6, 6-(4-amino-4-phenylpiperidin-1-yl)-3-(2,3-dichlorophenyl)-1H-pyrazolo[3,4-d]pyrimidine-4-carboxamide]	4 nM	IC50 [1]: 61 nM; IC50 [2]: 19 nM; Pharmacokinetic properties (conclusion in words) [4]: good pharmacokinetic properties; AUC(0-inf) ([4]; mouse, 10 mg/kg per table (method text says 1 mg/kg), plasma, read-out: Area under curve AUC0-∞): 18500 ng·h/mL; Cmax ([4]; mouse, 10 mg/kg per table (method text says 1 mg/kg), plasma, read-out: Blood concentration Cmax): 1190 ng/mL
NC(=O)c1nc(N2CCC(N)CC2)nc2[nH]nc(-c3cccc(Cl)c3Cl)c12 [Example 15, 6-(4-Aminopiperidin-1-yl)-3-(2,3-dichlorophenyl)-1H-pyrazolo[3,4-d]pyrimidine-4-carboxamide]	24 nM	
NC1(c2ccccc2)CCN(c2nc(-c3nnn[nH]3)c3c(-c4cccc(Cl)c4Cl)n[nH]c3n2)CC1 [Example 30, 1-(3-(2,3-dichlorophenyl)-4-(1H-tetrazol-5-yl)-1H-pyrazolo[3,4-d]pyrimidin-6-yl)-4-phenylpiperidin-4-amine]	3 nM	
NC1(c2ccccc2Cl)CCN(c2nc(C(=O)O)c3c(-c4cccc(Cl)c4Cl)n[nH]c3n2)CC1 [Example 23, 6-(4-amino-4-(2-chlorophenyl)piperidin-1-yl)-3-(2,3-dichlorophenyl)-1H-pyrazolo[3,4-d]pyrimidine-4-carboxylic acid]	2 nM	
NC(=O)c1nc(N2CCC(N)(c3ccccc3)CC2)nc2[nH]cc(-c3cccc(Cl)c3Cl)c12 [Example 53, 2-(4-amino-4-phenylpiperidin-1-yl)-5-(2,3-dichlorophenyl)-7H-pyrrolo[2,3-d]pyrimidine-4-carboxamide]	11 nM	
NC(=O)c1nc(N2[C@@H]3CC[C@H]2C[C@@H](N)C3)nc2[nH]nc(-c3cccc(Cl)c3Cl)c12 [Example 7, 6-((endo)-3-amino-8-azabicyclo[3.2.1]octan-8-yl)-3-(2,3-dichlorophenyl)-1H-pyrazolo[3,4-d]pyrimidine-4-carboxamide]	14 nM	
NC(=O)c1nc(N2CCC(N)(c3ccccn3)CC2)nc2[nH]nc(-c3cccc(Cl)c3Cl)c12 [Example 38, 6-(4-amino-4-(pyridin-2-yl)piperidin-1-yl)-3-(2,3-dichlorophenyl)-1H-pyrazolo[3,4-d]pyrimidine-4-carboxamide]	27 nM	
CC1(N)CCN(c2nc(C(N)=O)c3c(-c4cccc(Br)c4Cl)n[nH]c3n2)CC1 [Example 12, 6-(4-amino-4-methylpiperidin-1-yl)-3-(3-bromo-2-chlorophenyl)-1H-pyrazolo[3,4-d]pyrimidine-4-carboxamide]	8 nM	
NC1(c2ccc(Cl)cc2)CCN(c2nc(C(=O)O)c3c(-c4cccc(Cl)c4Cl)n[nH]c3n2)CC1 [Example 24, 6-(4-amino-4-(4-chlorophenyl)piperidin-1-yl)-3-(2,3-dichlorophenyl)-1H-pyrazolo[3,4-d]pyrimidine-4-carboxylic acid]	5 nM	
